Patent publication US8889370B2, “Method of determining inhibitors of coagulation” (Siemens Healthcare Diagnostics Products GmbH, priority 2010, dated 2014)
Where two headings read alike, the source gives them in different places.

Biological target: T1, bovine thrombin (Bos taurus, UniProt P00735)
T1 construct: a lyophilized thrombin reagent consisting of bovine thrombin; purchased Siemens Healthcare Diagnostics (hirudin activity assay, thrombin reagent)
Assay: Determination of the thrombin binding constant (Ki) of peptide aldehyde ligands, chromogenic assay with hirudin activity assay reagents, Dixon plot
Format: biochemical
Experimental: The kinetic data of the peptide aldehyde ligands were determined in chromogenic assay formats by measuring the rate of hydrolysis of chromogenic peptide substrates which compete with the peptide aldehyde ligands for binding to the active site of the particular enzyme, at various substrate concentrations and peptide aldehyde-ligand concentrations. The binding constant (Ki) was determined by a known method (Dixon, M., 1953, Biochem J, 55, 170-171).
The thrombin binding constant was determined using the reagents of the hirudin activity assay from Siemens Healthcare Diagnostics. The hirudin activity assay comprises a lyophilized thrombin reagent consisting of bovine thrombin, a heparin inhibitor and aprotinin, a lyophilized chromogenic substrate reagent with a concentration of 4 mmol/l tos-Gly-Pro-Arg-ANBA-IPA (tosylglycyl-L-propyl-arginyl-5-amino-2-nitrobenzoyliso-propylamide) after reconstitution. The thrombin reagent was reconstituted in buffer solution (trishydroxymethylamino-methane, NaCl, pH 8.2). Dilutions of the substrate reagent were prepared with deionized water. The peptide aldehyde ligands prepared according to example 1 were dissolved in water and used as sample. The B-r-G-R—H ligand was used in a concentration range from 26.1 to 0.815 μM. The B-f-P—R—H ligand was used in a concentration range from 26.1 to 0 μM. The assays were carried out automatically in a BCS® XP coagulation analyzer (Siemens Healthcare Diagnostics, Marburg, Germany).
A reaction mix was mixed together as follows:
30 μl of sample (peptide aldehyde ligand B-r-G-R—H or B-f-P—R—H),
150 μl of thrombin reagent,
50 μl of chromogenic substrate reagent (tos-Gly-Pro-Arg-ABNA-IPA).
The reaction rate in mE/min was determined on the basis of the increase in optical density of the reaction mix at a wavelength of 405 nm. For this, the optical density of the reaction mixes was determined in time intervals of from 15 to 40 seconds for the B-f-P—R—H peptide aldehyde ligand or 5-16 seconds for the B-r-G-R—H peptide aldehyde ligand.
Reversibly and irreversibly binding ligands can be distinguished by their reaction kinetics. Plotting 1/v, where v is the reaction rate, as a function of the ligand concentration (i) at a constant concentration (S) of a cleavable substrate produces a line. When using two or more different substrate concentrations (S1, S2 . . . SN), said lines intersect at a single point. The x axis value of this point corresponds to −Ki, with Ki corresponding to the binding constant, see, for example, Klebe, G., Wirkstoffdesign, 2nd edition, Spektrum Akademischer Verlag, Heidelberg, Germany, 2009, pages 52-62 and Dixon, M., 1953, Biochem J, 55, 170-171. With an irreversible inhibition, the curves meet at a single point on the x axis, which again corresponds to −Ki.

N=C(N)NCCC[C@@H](C=O)NC(=O)CNC(=O)[C@@H](CCCNC(=N)N)NC(=O)CCC(=O)NCCCOCCOCCOCCCNC(=O)CCCC[C@@H]1SC[C@@H]2NC(=O)N[C@@H]21 [B-r-G-R-H, biotinyl-Ttds-D-Arg-Gly-Arg-H]
1/Reaction rate (CB-r-G-R-H 0.81522 μM, Csubstrate = 0.5 mM): 0.516 min/E | 1/Reaction rate (CB-r-G-R-H 0.81522 μM, Csubstrate = 2 mM): 0.3884 min/E | 1/Reaction rate (CB-r-G-R-H 0.81522 μM, Csubstrate = 4 mM): 0.3756 min/E | 1/Reaction rate (CB-r-G-R-H 1.30435 μM, Csubstrate = 0.5 mM): 0.5211 min/E | 1/Reaction rate (CB-r-G-R-H 1.30435 μM, Csubstrate = 2 mM): 0.3902 min/E | 1/Reaction rate (CB-r-G-R-H 1.30435 μM, Csubstrate = 4 mM): 0.3758 min/E | 1/Reaction rate (CB-r-G-R-H 1.63043 μM, Csubstrate = 0.5 mM): 0.5224 min/E | 1/Reaction rate (CB-r-G-R-H 1.63043 μM, Csubstrate = 2 mM): 0.3894 min/E | 1/Reaction rate (CB-r-G-R-H 1.63043 μM, Csubstrate = 4 mM): 0.3748 min/E | 1/Reaction rate (CB-r-G-R-H 2.60870 μM, Csubstrate = 0.5 mM): 0.5283 min/E | 1/Reaction rate (CB-r-G-R-H 2.60870 μM, Csubstrate = 2 mM): 0.3876 min/E | 1/Reaction rate (CB-r-G-R-H 2.60870 μM, Csubstrate = 4 mM): 0.373 min/E | 1/Reaction rate (CB-r-G-R-H 3.26087 μM, Csubstrate = 0.5 mM): 0.5385 min/E | 1/Reaction rate (CB-r-G-R-H 3.26087 μM, Csubstrate = 2 mM): 0.3968 min/E | 1/Reaction rate (CB-r-G-R-H 3.26087 μM, Csubstrate = 4 mM): 0.3807 min/E | 1/Reaction rate (CB-r-G-R-H 5.21739 μM, Csubstrate = 0.5 mM): 0.5408 min/E | 1/Reaction rate (CB-r-G-R-H 5.21739 μM, Csubstrate = 2 mM): 0.3946 min/E | 1/Reaction rate (CB-r-G-R-H 5.21739 μM, Csubstrate = 4 mM): 0.3761 min/E | 1/Reaction rate (CB-r-G-R-H 6.52174 μM, Csubstrate = 0.5 mM): 0.5637 min/E | 1/Reaction rate (CB-r-G-R-H 6.52174 μM, Csubstrate = 2 mM): 0.4008 min/E | 1/Reaction rate (CB-r-G-R-H 6.52174 μM, Csubstrate = 4 mM): 0.3841 min/E | 1/Reaction rate (CB-r-G-R-H 9.78261 μM, Csubstrate = 0.5 mM): 0.5802 min/E | 1/Reaction rate (CB-r-G-R-H 9.78261 μM, Csubstrate = 2 mM): 0.4106 min/E | 1/Reaction rate (CB-r-G-R-H 9.78261 μM, Csubstrate = 4 mM): 0.3805 min/E | 1/Reaction rate (CB-r-G-R-H 13.04348 μM, Csubstrate = 0.5 mM): 0.609 min/E | 1/Reaction rate (CB-r-G-R-H 13.04348 μM, Csubstrate = 2 mM): 0.4032 min/E | 1/Reaction rate (CB-r-G-R-H 13.04348 μM, Csubstrate = 4 mM): 0.3885 min/E | 1/Reaction rate (CB-r-G-R-H 16.30435 μM, Csubstrate = 0.5 mM): 0.6264 min/E | 1/Reaction rate (CB-r-G-R-H 16.30435 μM, Csubstrate = 2 mM): 0.414 min/E | 1/Reaction rate (CB-r-G-R-H 16.30435 μM, Csubstrate = 4 mM): 0.3865 min/E | 1/Reaction rate (CB-r-G-R-H 26.08696 μM, Csubstrate = 0.5 mM): 0.6903 min/E | 1/Reaction rate (CB-r-G-R-H 26.08696 μM, Csubstrate = 2 mM): 0.4285 min/E | 1/Reaction rate (CB-r-G-R-H 26.08696 μM, Csubstrate = 4 mM): 0.395 min/E | Intersect of regression curve 1/reaction rate vs ligand concentration (Csubstrate 0.5 mM): 0.5122 min/E | Slope of regression curve 1/reaction rate vs ligand concentration (Csubstrate 0.5 mM): 0.006964 min/E μM | Intersect of regression curve 1/reaction rate vs ligand concentration (Csubstrate 2 mM): 0.3880 min/E | Slope of regression curve 1/reaction rate vs ligand concentration (Csubstrate 2 mM): 0.001572 min/E μM | Intersect of regression curve 1/reaction rate vs ligand concentration (Csubstrate 4 mM): 0.3746 min/E | Slope of regression curve 1/reaction rate vs ligand concentration (Csubstrate 4 mM): 0.000805 min/E μM | Ki (average of three Ki values, read-out: KiM average thrombin binding constant): 20.9 µM | Ki (intersection of regression curves Csubstrate 2 and 0.5 mM, read-out: Ki2&3 thrombin binding constant): 23 µM | Ki (intersection of regression curves Csubstrate 4 and 0.5 mM, read-out: Ki1&3 thrombin binding constant): 22.3 µM | Ki (intersection of regression curves Csubstrate 4 and 2 mM, read-out: Ki1&2 thrombin binding constant): 17.4 µM | binding of the peptide aldehyde with thrombin (reversible or irreversible) (intersections of regression curves not on the x axis): reversible
